Test results taken from patent publication US20120035187A1 (priority 2009, published 2012).

Key:
[1] = Peroxyl radical-scavenging activity, ESR (AAPH)
Procedure: Stock solutions, prepared by dissolving NK-4, NK-19, NK-53, NK-100, and NK-557 in DMSO, were respectively diluted with 0.1 M phosphate buffer to give concentrations of […] higher than those in Table 15 and used as test sample solutions. To 50 μl of 0.1 M phosphate buffer (pH 7.4), 50 μl of 180 mM DMPO ([…]) commercialized by Dojindo Laboratories, Kumamoto, Japan, 50 μl of any one of the test sample solutions, and 50 μl of 100 mM AAPH, commercialized by Wako Pure Chemical Industries, Osaka, Japan, were added, mixed for 10 seconds using a vortex mixer and allowed to react in an incubator controlled at 37° for two minutes and 50 seconds. After 30 seconds from completion of the reaction, the resulting reaction mixture was subjected to ESR measurement.
The reaction mixture for measuring hydroxyl or peroxyl radicals was poured into a flat quartz cell for ESR, set to “FREE RADICAL MONITOR JES-FR30”, an ESR apparatus commercialized by JOEL Ltd., Tokyo, Japan, and ESR was measured according to manual manner. The residual ratio of peroxyl radical (%) was determined as a relative value by defining the ESR value, obtained by using 0.1 M phosphate buffer as a substitute of the test sample solution, as 100. The results are in Tables 14 and 15. […] Therefore, the IC50 of edaravone was determined by another test using its higher concentration, and the result is also shown in Table 14. The conditions of the ESR measurement were set as follows: […]

[2] = system: ICR mice injected with amyloid β fragment; assay: Novelty object recognition test, mouse injected with amyloid β fragment (Alzheimer's dementia model); format: in vivo; settings: for adverse effect / novelty object recognition test (in words): mice injected with amyloid β fragment; for adverse effect: i.p. once a day over 13 days; for novelty object recognition test (in words): vs amyloid β fragment alone; for Index for object discrimination: mouse administered with amyloid β fragment
Procedure: One hundred of ICR mice (male, five weeks of age, body weight of 25 to 30 g, commercialized by Charles Liver Laboratories Japan Inc., Kanagawa, Japan) were randomly divided into 10 groups, each consisting 10 heads, and raised separately until the experiment was terminated. […] A micro syringe with an […] stainless needle (3 mm length) was used for injection. The injection site was determined by confirming the staining at right-and-left lateral ventricles of the frontal section, dorsal third ventricle, and ventral third ventricle by injecting an Evans' Blue solution (0.3 μg/0.3 μl) in place of the solution of amyloid β fragment.
The test, which consists of three parts of acclimation, practicing trial, and holding trial, was operated at six to eight days after administering amyloid β fragment into the subjects' ventricles. The experiment apparatus (40 cm in depth, 30 cm in width and 30 cm in height), in which the floor was paved with wood tips, was placed in a noiseless place under an illumination of about 1,000 lux. On the 6th day after the administration, a mouse was placed in the center of the apparatus without seeking object and allowed to seek freely for 10 minutes (acclimation). After 24 hours (on the 7th day after the administration), two objects (objects A and B) were placed in the apparatus at a position 10-cm apart from the lateral side, and the mouse was placed in the center of the apparatus and allowed to seek freely for 10 minutes (practicing trial). After 24 hours (on 8th day after the administration), object A (memorized object) sought by the mouse on the previous day was placed at the same position of object A as placed on the previous day, and object C (novel object) different from object B used on the previous day […] of object B as placed on the previous day, and then the mouse was placed in the center of the apparatus and allowed to seek freely for 10 minutes (holding trial). When the mouse directed its muffle close to the object within 2 cm apart from the object or allowed its muffle to contact with the object, the mouse was judged to be seeking, and the seeking time thereof was measured with a stopwatch. The object discrimination index [={(seeking time for novel object)−(seeking time for memorized object)}/{(seeking time for novel object)+(seeking time for memorized object)}] was calculated. The object discrimination index means the ratio of increase in seeking time for novel object to the total seeking time, which becomes longer when the memory of the once sought object is more strongly held and becomes shorter when the memory is more weakly held.

[3] = system: primary neuron (neuron, astrocyte and microglia) prepared from brain cortex of a rat fetus; assay: Hydrogen peroxide disorder in primary neuron; format: cell-based; settings: concrete data not shown
Excerpt: Though concrete data is not shown, using primary neuron (neuron, astrocyte and microglia) prepared from brain cortex of a rat fetus in place of PC12-HS cells, the influence of NK-4, NK-26, NK-234, NK-19 and NK-150 on amyloid β fragment disorder and hydrogen peroxide disorder was investigated.

[4] = compound concentration 25 μg/ml
[5] = compound concentration 50 μg/ml
[6] = 500 μg/kg body weight i.p. once a day

Row | SMILES | IC50 (μg/ml) of peroxyl radical-scavenging activity [1] | Residual ratio of peroxyl radical (%) ([1]; compound concentration 5 μg/ml) | Residual ratio of peroxyl radical (%) [1, 4] [%] | Residual ratio of peroxyl radical (%) [1, 5] [%] | adverse effect [2] | novelty object recognition test (in words) [2, 6] | Index for object discrimination ([2]; dose 50 μg/kg body weight) | Index for object discrimination ([2]; dose 500 μg/kg body weight) | suppressing hydrogen peroxide disorder [3] | novelty object recognition test (in words) ([2]; 50 μg/kg body weight i.p. once a day) | Index for object discrimination ([2]; dose 5 μg/kg body weight)
1 | CC[n+]1ccccc1/C=C/c1ccc(N(C)C)cc1 [NK-557] | 50< μg/ml | 90 ± 9 | 58 ± 5 | 66 ± 8 | – | – | – | – | – | – | –
2 | CCN1/C(=C/C=C(/C=C/c2sc3ccccc3[n+]2CC)c2sc3ccccc3[n+]2CC)Sc2ccccc21.[I-].[I-] [NK-100] | 50< μg/ml | 86 ± 15 | 86 ± 15 | 76 ± 7 | – | – | – | – | – | – | –
3 | CCN1C=CC(=CC=C(C=Cc2cc[n+](CC)c3ccccc23)c2cc[n+](CC)c3ccccc23)c2ccccc21.[I-].[I-] [NK-4] | 4.7 µg/mL | 46 ± 9 | 17 ± 1 | 16 ± 0 | No adverse effect | significant improvement | 0.15 ± 0.07 | 0.41 ± 0.08 | actions of suppressing | – | –
4 | CCCCN1C=C/C(=C/C=C(/C=C/c2cc[n+](CCCC)c3ccccc23)c2cc[n+](CCCC)c3ccccc23)c2ccccc21 [NK-26] | – | – | – | – | No adverse effect | – | 0.19 ± 0.07 | 0.11 ± 0.08 | actions of suppressing | significant improvement | 0.05 ± 0.08
5 | CCCN1C=CC(=CC=C(C=Cc2cc[n+](CCC)c3ccccc23)c2cc[n+](CCC)c3ccccc23)c2ccccc21.[I-].[I-] [NK-234] | – | – | – | – | No adverse effect | significant improvement | – | 0.29 ± 0.07 | actions of suppressing | – | –
